Where two headings read alike, the source gives them in different places.
Tests used:
Ovcar3 [1] = format: cell-based, human
HCC = details: monotherapy of HCC; cited from earlier work
Virttu cell line panel = test: cells; format: cell-based; details: Homo sapiens
HepG2-luc = format: cell-based, human
UVW = format: cell-based, human
CP70 = format: cell-based, human
UVW cells = test: DCP cell death assay, drug alone, UVW; format: cell-based; details: Homo sapiens, 72 hrs, read-out: IC50 (DCP leakage)
HCC cell lines = format: cell-based, human
Virttu cell panel = test: combination with HSV1716, DCP cell death, Chou-Talalay analysis, cell panel; format: cell-based, human; details: for number of cell lines tested in which antagonism was detected: drug + HSV1716 moi 0.5 and 0.05, cell death by DCP after 72 hours
HSV1716gfp = test: GFP expression during infection with HSV1716gfp (drug toxicity to virus); format: cell-based, herpes simplex virus
Hep3B = format: cell-based, human
HuH7 = format: cell-based, human
One58 = format: cell-based, human
IR = IR (Homo sapiens, UniProt P06213); details: cited from earlier work
[2] = test system: EGFR- or ErbB2-overexpressing cells; details: read-out: IC50, growth of EGFR- or ErbB2-overexpressing cells; cited from earlier work
[3] = test system: cells expressing low levels of EGFR or ErbB2; details: read-out: IC50, cells expressing low levels of EGFR or ErbB2; cited from earlier work
U87 = format: cell-based, human
A431 = format: cell-based, human
A431 cells [4] = test: cells; details: Homo sapiens, A-431, 72 h, read-out: IC50 (DCP leakage)
[5] = test system: human gastric carcinoma xenograft; test: patient-derived human gastric carcinoma xenograft model; set-up: species or system mice; details: mouse, in vivo
Procedure: HSV1716 (Seprehvir) was used in a personalised oncology study. Patient-derived tumour samples were obtained from a gastric carcinoma. There have been no previous in vitro or in vivo pre-clinical studies with Seprehvir in human gastric carcinoma cells/xenografts. Seprehvir was stored at −70° C., and multiple vials were provided to avoid repeated freeze/thawing.
Two groups of 3 mice with gastric carcinoma implants were treated with 2×10^6 pfu Seprehvir by either intratumoural (IT) or intravenous (IV) routes of administration. Control mice (n=3) received no treatment and in these mice the implants grew rapidly and all were sacrificed within 18 days (FIG. 61). For IV injection, Seprehvir was administered on days 0, 3, 10 and 18, at which point the tumors were too large and the mice were sacrificed.
For IT injection of Seprehvir, 2×10^6 pfu was administered on days 0, 3, 10, 18, 21 and 25.
. Control mice (n=3) received no treatment and in these mice the implants grew rapidly and all were sacrificed within 18 days (FIG. 62). […]. A follow-on study with HSV1716 administering more frequent by IV dosing at the higher concentration of 10^7 pfu was performed using the same human gastric carcinoma xenograft model. […].
Groups of 3 mice received IV injection of HSV1716 at 1×10^7 pfu on days 1, 3, 5, 8, 10, 12, 15, 17 and 19. […]

A431 cells [6] = details: read-out: IC50 in A431 cells, previously reported; cited from earlier work
SPC-111 = test: DCP cell death assay, drug alone, SPC-111; format: cell-based; details: Homo sapiens; SPC-111, 72 hrs; read-out: IC50 (DCP leakage)
[7] = test system: breast carcinoma and melanoma cell lines; details: read-out: IC50 in breast carcinoma and melanoma cell lines, reported; cited from earlier work
SKOV3 [8] = test: DCP cell death assay, drug alone, SKOV3; format: cell-based; details: Homo sapiens, SK-OV-3; SKOV3, 72 hrs; read-out: IC50 (DCP leakage)
Ovcar3 [9] = test: DCP cell death assay, drug alone, Ovcar3; format: cell-based; details: Homo sapiens, OVCAR-3; Ovcar3, 72 hrs; read-out: IC50 (DCP leakage)
RCC cell lines = details: read-out: IC50 in RCC cell lines, reported; cited from earlier work
SPC111 = test: combination with HSV1716, Chou-Talalay, SPC111; format: cell-based, human; details: for synergy/antagonism with HSV1716 on cell death (Chou-Talalay): SPC111, HSV1716 moi 0.5 and 0.05, 72 hours
VEGFR3 = VEGFR3 (Homo sapiens, UniProt P35916); details: cited from earlier work
Flt3^D835Y = Flt3^D835Y (Homo sapiens, UniProt P36888, D835Y); details: cited from earlier work
non-sensitive cells = details: read-out: IC50 for non-sensitive cells, previously reported; cited from earlier work
SKOV3 [10] = format: cell-based, human

Sequence of IR (P06213 28-1382): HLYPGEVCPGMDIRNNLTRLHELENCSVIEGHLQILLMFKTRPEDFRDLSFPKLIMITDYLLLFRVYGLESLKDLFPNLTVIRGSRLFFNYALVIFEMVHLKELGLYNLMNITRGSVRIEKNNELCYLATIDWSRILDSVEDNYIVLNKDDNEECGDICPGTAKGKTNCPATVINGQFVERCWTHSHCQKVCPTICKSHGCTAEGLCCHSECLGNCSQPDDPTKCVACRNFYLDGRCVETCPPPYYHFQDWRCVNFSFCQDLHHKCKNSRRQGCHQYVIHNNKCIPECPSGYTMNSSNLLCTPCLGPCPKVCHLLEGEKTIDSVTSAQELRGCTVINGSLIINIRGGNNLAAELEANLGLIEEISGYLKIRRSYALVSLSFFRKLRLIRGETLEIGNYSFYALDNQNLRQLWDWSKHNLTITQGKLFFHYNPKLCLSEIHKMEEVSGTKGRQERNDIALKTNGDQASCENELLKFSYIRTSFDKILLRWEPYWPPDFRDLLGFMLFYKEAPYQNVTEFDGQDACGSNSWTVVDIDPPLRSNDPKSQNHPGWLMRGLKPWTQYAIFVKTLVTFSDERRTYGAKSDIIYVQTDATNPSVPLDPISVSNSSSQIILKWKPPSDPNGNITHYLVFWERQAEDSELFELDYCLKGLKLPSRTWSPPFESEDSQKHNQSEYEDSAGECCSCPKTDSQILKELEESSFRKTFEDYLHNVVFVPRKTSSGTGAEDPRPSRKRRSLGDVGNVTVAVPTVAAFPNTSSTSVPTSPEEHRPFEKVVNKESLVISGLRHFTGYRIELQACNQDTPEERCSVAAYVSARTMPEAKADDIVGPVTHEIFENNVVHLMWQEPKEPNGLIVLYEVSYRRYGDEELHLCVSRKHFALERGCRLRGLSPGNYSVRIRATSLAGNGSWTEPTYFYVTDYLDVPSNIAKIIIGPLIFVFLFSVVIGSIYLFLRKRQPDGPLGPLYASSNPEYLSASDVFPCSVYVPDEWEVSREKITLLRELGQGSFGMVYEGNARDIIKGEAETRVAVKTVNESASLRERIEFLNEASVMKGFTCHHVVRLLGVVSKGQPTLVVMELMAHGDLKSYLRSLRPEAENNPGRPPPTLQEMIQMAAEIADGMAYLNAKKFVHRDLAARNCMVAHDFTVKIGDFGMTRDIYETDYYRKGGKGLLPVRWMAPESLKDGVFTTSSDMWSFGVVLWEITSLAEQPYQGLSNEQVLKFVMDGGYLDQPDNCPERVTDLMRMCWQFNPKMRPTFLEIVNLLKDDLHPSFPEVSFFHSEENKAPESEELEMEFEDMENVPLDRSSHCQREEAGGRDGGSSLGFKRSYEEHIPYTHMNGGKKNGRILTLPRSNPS
Sequence of VEGFR3 (P35916 25-1363): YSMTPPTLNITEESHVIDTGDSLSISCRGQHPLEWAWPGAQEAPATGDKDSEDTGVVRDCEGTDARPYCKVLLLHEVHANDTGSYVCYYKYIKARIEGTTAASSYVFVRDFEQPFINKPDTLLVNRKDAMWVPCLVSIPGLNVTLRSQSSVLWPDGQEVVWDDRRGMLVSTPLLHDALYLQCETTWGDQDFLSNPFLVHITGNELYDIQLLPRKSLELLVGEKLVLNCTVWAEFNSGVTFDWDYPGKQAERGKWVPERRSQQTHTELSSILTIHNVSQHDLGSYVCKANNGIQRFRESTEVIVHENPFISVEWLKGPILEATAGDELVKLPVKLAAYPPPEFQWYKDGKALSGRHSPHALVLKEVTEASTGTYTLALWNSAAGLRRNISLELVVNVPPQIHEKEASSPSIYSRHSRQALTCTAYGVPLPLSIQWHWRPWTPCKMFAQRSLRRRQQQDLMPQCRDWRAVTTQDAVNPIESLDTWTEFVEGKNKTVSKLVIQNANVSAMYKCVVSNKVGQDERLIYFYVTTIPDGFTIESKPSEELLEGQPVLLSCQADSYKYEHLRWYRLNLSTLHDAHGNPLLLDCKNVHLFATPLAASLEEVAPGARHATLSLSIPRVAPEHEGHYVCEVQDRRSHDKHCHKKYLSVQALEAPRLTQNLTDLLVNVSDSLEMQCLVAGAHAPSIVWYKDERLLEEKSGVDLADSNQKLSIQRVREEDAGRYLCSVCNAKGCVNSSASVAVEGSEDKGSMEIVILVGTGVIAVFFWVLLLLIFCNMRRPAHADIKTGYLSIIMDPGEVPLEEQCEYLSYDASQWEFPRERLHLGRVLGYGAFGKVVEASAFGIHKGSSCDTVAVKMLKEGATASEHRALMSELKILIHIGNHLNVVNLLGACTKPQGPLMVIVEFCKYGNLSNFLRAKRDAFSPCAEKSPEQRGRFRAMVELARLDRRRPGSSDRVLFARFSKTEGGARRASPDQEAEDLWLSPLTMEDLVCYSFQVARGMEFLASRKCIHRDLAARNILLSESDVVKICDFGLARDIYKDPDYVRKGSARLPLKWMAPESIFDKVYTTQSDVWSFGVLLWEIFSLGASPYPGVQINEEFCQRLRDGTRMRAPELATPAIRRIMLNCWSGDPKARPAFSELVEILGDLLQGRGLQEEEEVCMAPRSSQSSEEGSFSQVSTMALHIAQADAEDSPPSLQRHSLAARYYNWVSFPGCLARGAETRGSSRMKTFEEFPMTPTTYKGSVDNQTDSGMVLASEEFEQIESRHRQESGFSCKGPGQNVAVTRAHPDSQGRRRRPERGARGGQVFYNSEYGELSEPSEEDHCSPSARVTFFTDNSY

SMILES: CNC(=O)c1cc(Oc2ccc(NC(=O)Nc3ccc(Cl)c(C(F)(F)F)c3)cc2)ccn1 [Sorafenib, 4-[4-[[4-chloro-3-(trifluoromethyl)phenyl]carbamoylamino]phenoxy]-N-methyl-pyridine-2-carboxamide]
- synergy/antagonism with HSV1716 on cell death (Chou-Talalay) (Ovcar3 [1]): synergies occurred
- prolongation of median survival and time to progression (HCC): ~3 months
- reduction of the risk of death during year 1 (HCC): 31%
- IC50 (Virttu cell line panel; most/all cell lines of panel, 72 hrs, read-out: IC50 (DCP leakage), range over cell lines): 1000 to 10000 nM
- synergy/antagonism with HSV1716 on cell death (Chou-Talalay) (HepG2-luc): synergistically
- synergy/antagonism with HSV1716 on cell death (Chou-Talalay) (UVW): no synergies
- synergy/antagonism with HSV1716 on cell death (Chou-Talalay) (CP70): synergies occurred
- IC50 (UVW cells): 100 nM
- synergy with HSV1716 on cell death (Chou-Talalay) (HCC cell lines): strongly synergistic
- number of cell lines tested with clear synergy signals / synergism with HSV1716 (Virttu cell panel): 8/10
- effect on GFP expression during HSV1716gfp infection (HSV1716gfp; CP70, moi 0.05, 72 hrs): more marked inhibitory effect
- effect on GFP expression during HSV1716gfp infection (HSV1716gfp; Hep3B, moi 0.05, 72 hrs): more marked inhibitory effect
- effect on GFP expression during HSV1716gfp infection (HSV1716gfp; HuH7, moi 0.05, 72 hrs): small inhibitory effect at the 2.5 μM Sorafenib concentration
- effect on GFP expression during HSV1716gfp infection (HSV1716gfp; One58, moi 0.05, 72 hrs): more marked inhibitory effect
- effect on GFP expression during HSV1716gfp infection (HSV1716gfp; Ovcar3, moi 0.05, 72 hrs): more marked inhibitory effect
- effect on GFP expression during HSV1716gfp infection (HSV1716gfp; SKOV3, moi 0.05, 72 hrs): no effect on GFP expression
- effect on GFP expression during HSV1716gfp infection (HSV1716gfp; SPC111, moi 0.05, 72 hrs): more marked inhibitory effect
- effect on GFP expression during HSV1716gfp infection (HSV1716gfp; U87, moi 0.05, 72 hrs): small inhibitory effect at the 2.5 μM Sorafenib concentration
- effect on GFP expression during HSV1716gfp infection (HSV1716gfp; UVW, moi 0.05, 72 hrs): no effect on GFP expression
- effect on GFP expression during HSV1716gfp infection (HSV1716gfp; all cell lines tested, moi 0.5, 72 hrs): little effect on GFP expression
- synergy/antagonism with HSV1716 on cell death (Chou-Talalay) (Hep3B): synergistically
- synergy/antagonism with HSV1716 on cell death (Chou-Talalay) (HuH7): synergistically
- synergy/antagonism with HSV1716 on cell death (Chou-Talalay) (One58): no synergies

SMILES: CC(C)(C)c1cc(C=C(C#N)C#N)cc(Br)c1O [AG-1024, 2-(3-bromo-5-tert-butyl-4-hydroxybenzylidene)malononitrile]
- IC50 (IR): 100 nM

SMILES: CS(=O)(=O)CCNCc1ccc(-c2ccc3ncnc(Nc4ccc(OCc5cccc(F)c5)c(Cl)c4)c3c2)o1 [Lapatinib, N-[3-chloro-4-[(3-fluorophenyl)methoxy]phenyl]-6-[5-[(2-methylsulfonylethylamino)methyl]-2-furyl]quinazolin-4-amine]
- IC50 [2]: 90 to 210 nM
- IC50 [3]: 3000 to 12000 nM
- number of synergistic combinations out of 8 (U87): 2/8
- synergy/antagonism with HSV1716 on cell death (Chou-Talalay) (U87): some synergy
- IC50 (Virttu cell line panel; A-431, 72 h, read-out: IC50 (DCP leakage), range): 4000 to 30000 nM
- synergy/antagonism with HSV1716 on cell death (Chou-Talalay) (UVW): strongly synergistic
- number of synergistic combinations out of 8 (A431): 1/8
- synergy/antagonism with HSV1716 on cell death (Chou-Talalay) (A431): some synergy
- IC50 (A431 cells [4]): 150 nM
- number of cell lines tested in which antagonism was detected (Virttu cell panel): 8 of the 10
- tumour growth inhibition [5]: some tumour growth inhibition until day 6
- IC50 (A431 cells [6]): 160 nM
- synergy/antagonism with HSV1716 on cell death (Chou-Talalay) (Hep3B): strongly synergistic

SMILES: Cc1ccc(Nc2nccc(N(C)c3ccc4c(C)n(C)nc4c3)n2)cc1S(N)(=O)=O [Pazopanib, 5-[[4-[(2,3-Dimethyl-2H-indazol-6-yl)methylamino]-2-pyrimidinyl]amino]-2-methylbenzolsulfonamide]
- IC50 (SPC-111): 40000 nM
- IC50 [7]: 1000 to 10000 nM
- IC50 (Virttu cell line panel; Hep3B, HuH7, HepG2-luc, CP70, U87 and One58, 72 hrs, read-out: IC50 (DCP leakage), range): 3000 to 18000 nM
- IC50 (SKOV3 [8]): 40000 nM
- synergy/antagonism with HSV1716 on cell death (Chou-Talalay) (CP70): synergistic
- IC50 (UVW cells): 300 nM
- IC50 (Ovcar3 [9]): 40000 nM
- number of cell lines tested with clear synergy signals / synergism with HSV1716 (Virttu cell panel): 7/9
- IC50 (RCC cell lines): 30000 to 60000 nM
- effect on GFP expression during HSV1716gfp infection (HSV1716gfp; CP70, moi 0.5 and 0.05, 72 hrs): stimulated GFP expression
- effect on GFP expression during HSV1716gfp infection (HSV1716gfp; HepG2-luc, both moi (0.5 and 0.05), 72 hrs): little effect on GFP expression
- effect on GFP expression during HSV1716gfp infection (HSV1716gfp; HuH7, moi 0.05, 72 hrs): more potent inhibitory effect
- effect on GFP expression during HSV1716gfp infection (HSV1716gfp; HuH7, moi 0.5, 72 hrs): inhibited GFP expression
- effect on GFP expression during HSV1716gfp infection (HSV1716gfp; One58, moi 0.05, 72 hrs): more potent inhibitory effect
- effect on GFP expression during HSV1716gfp infection (HSV1716gfp; One58, moi 0.5, 72 hrs): inhibited GFP expression
- effect on GFP expression during HSV1716gfp infection (HSV1716gfp; Ovcar3, moi 0.05, 72 hrs): more potent inhibitory effect
- effect on GFP expression during HSV1716gfp infection (HSV1716gfp; Ovcar3, moi 0.5, 72 hrs): inhibited GFP expression
- effect on GFP expression during HSV1716gfp infection (HSV1716gfp; SKOV3, moi 0.05, 72 hrs): no inhibitory effects
- effect on GFP expression during HSV1716gfp infection (HSV1716gfp; SKOV3, moi 0.5, 72 hrs): inhibited GFP expression
- effect on GFP expression during HSV1716gfp infection (HSV1716gfp; UVW, moi 0.05, 72 hrs): no inhibitory effects
- effect on GFP expression during HSV1716gfp infection (HSV1716gfp; UVW, moi 0.5, 72 hrs): inhibited GFP expression
- synergy/antagonism with HSV1716 on cell death (Chou-Talalay) (SPC111): limited synergy
- synergy/antagonism with HSV1716 on cell death (Chou-Talalay) (HuH7): limited synergy
- synergy/antagonism with HSV1716 on cell death (Chou-Talalay) (One58): synergistic

SMILES: CCn1c(N)c(C(=O)NC)c(=O)c2ccc(C#C[C@@](C)(O)COC)nc21 [SAR131675, (R)-2-amino-1-ethyl-7-(3-hydroxy-4-methoxy-3-methylbut-1-ynyl)-N-methyl-4-oxo-1,4-dihydro-1,8-naphthyridine-3-carboxamide]
- IC50 (VEGFR3): 20 nM

SMILES: S=C(NCc1ccc2c(c1)OCO2)N1CCN(c2ncnc3c2oc2ccccc23)CC1 [Amuvatinib, N-(benzo[d][1,3]dioxol-5-ylmethyl)-4-(benzofuro[3,2-d]pyrimidin-4-yl)piperazine-1-carbothioamide]
- IC50 (Flt3^D835Y): 81 nM

SMILES: C#Cc1cccc(Nc2ncnc3cc(OCCOC)c(OCCOC)cc23)c1 [Erlotinib, N-(3-ethynylphenyl)-6,7-bis(2-methoxyethoxy)quinazolin-4-amine]
- synergy/antagonism with HSV1716 on cell death (Chou-Talalay) (U87): synergistic
- IC50 (Virttu cell line panel; A-431, all other cell lines (other than A431), 72 hours, read-out: IC50 (DCP leakage), range): 1000 to 25000 nM
- IC50 (non-sensitive cells): > 10000 nM
- number of synergistic combinations out of 8 (SKOV3 [10]): 1/8
- synergy/antagonism with HSV1716 on cell death (Chou-Talalay) (SKOV3 [10]): limited synergy
- overall synergy/antagonism with HSV1716 on cell death (Virttu cell panel): mostly antagonistic
- number of cell lines tested in which antagonism was detected (Virttu cell panel): 9 out of 10
- synergy/antagonism with HSV1716 on cell death (Chou-Talalay) (SPC111): limited synergy
- number of synergistic combinations out of 8 (SPC111; SPC111, synergy at moi 0.05): 1/8
- number of synergistic combinations out of 8 (HuH7): 1/8
- synergy/antagonism with HSV1716 on cell death (Chou-Talalay) (HuH7): limited synergy
